According to patent publication US5015628A, “Anticariogenic phosphopeptides” (The University of Melbourne, priority 1986, dated 1991):
Where a SMILES comes first, the peptide text is derived from it. [ ]: non-standard residue; d: D form. pS = N[C@@H](COP(=O)(O)O)C(=O)O

Experiment: Intra-Oral Caries Test (Test 2)
Assay type: in vivo
Conditions: plaque exposed twice a day to the peptide T1 solution
Method: The anticariogenicity of phosphopeptide T1 was determined using a modification of the intra-oral caries test of Koulourides and Ostrom (Caries Res. 10:442-482, 1976). Enamel slabs were inset in a removable intra-oral appliance to simulate an approximal area. This was done on both sides of the removable appliance (left and right). The appliance was worn to allow plaque accumulation in the simulated approximal areas. Eight times a day the appliance was removed and placed in a solution at 37° C. The solution was 2% w/v sucrose, 2% w/v glucose, 140 mM KCl, 20 mM NaCl at pH 7.0. Twice a day the right side enamel slabs received exposure to a solution containing 1.8% w/v calcium phosphate T1 in 140 mM KCl, 20 mM NaCl at pH 7.0, while the left side received only the salt solution. At the completion of the experiment the enamel slabs were removed, sectioned and subjected to microradiography and microhardness testing. […] The results were confirmed by microhardness analysis. Plaque was also taken from both sides of the appliance and analysed for calcium phosphate, serine phosphate and peptide T1 using a competitive, quantitative, enzyme-linked immunosorbent assay (ELISA) utilising monoclonal antipeptide T1 antibodies.

- level of peptide in plaque (ELISA): at least 0.4 % w/wet wt of plaque
Structure (SMILES): CC[C@H](C)[C@H](NC(=O)[C@H](COP(=O)(O)O)NC(=O)[C@H](CCC(=O)O)NC(=O)[C@H](C)NC(=O)[C@H](CCC(=O)O)NC(=O)[C@H](CCSC)NC(=O)[C@@H](N)CCC(=O)O)C(=O)N[C@@H](COP(=O)(O)O)C(=O)N[C@@H](COP(=O)(O)O)C(=O)N[C@@H](COP(=O)(O)O)C(=O)N[C@@H](CCC(=O)O)C(=O)N[C@@H](CCC(=O)O)C(=O)N[C@H](C(=O)N[C@H](C(=O)N1CCC[C@H]1C(=O)N[C@@H](CC(N)=O)C(=O)N[C@@H](COP(=O)(O)O)C(=O)N[C@H](C(=O)N[C@@H](CCC(=O)O)C(=O)N[C@@H](CCC(N)=O)C(=O)N[C@@H](CCCCN)C(=O)O)C(C)C)C(C)C)[C@@H](C)CC [T1, Glu-Met-Glu-Ala-Glu-Pse-Ile-Pse-Pse-Pse-Glu-Glu-Ile-Val-Pro-Asn-Pse-Val-Glu-Gln-Lys] (H-EMEAE[pS]I[pS][pS][pS]EEIVPN[pS]VEQK-OH)
